For data set [1], the target named is T1, human MET kinase del Ex14 (Homo sapiens, UniProt P08581, DEL963-1009).
T1 construct: GST-tagged recombinant human MET kinase domain; purchased Signal Chem
As to the kind of experiment: c-Met Enzyme Assay, del Ex14 mutant. It is filed as binding. The following applies: averaged IC50; del Ex14 5 nM; 60-minute incubation at 22° C.; read-out: Del14 IC50. The method in brief: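 LanthaScreen Eu TR-FRET binding: GST-tagged recombinant MET kinase domain incubated with compound, 50 nM Alexa-Fluor Tracer 236 and 2 nM Eu-anti-GST in 25 mM HEPES pH 7.4, 10 mM MgCl2, 1 mM DTT, 2% DMSO, 60 min at 22 °C. Ratiometric emission gave percent of control; IC50 from 4-parameter fit at 50 POC.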

Data set [2] addresses T2, GST-tagged recombinant human TYRO3 kinase domain (Homo sapiens, UniProt Q06418).
T2 construct: GST-tagged recombinant human TYRO3 kinase domain; purchased Carna PR7480A
T2 sequence (Q06418 518-790 limits assumed): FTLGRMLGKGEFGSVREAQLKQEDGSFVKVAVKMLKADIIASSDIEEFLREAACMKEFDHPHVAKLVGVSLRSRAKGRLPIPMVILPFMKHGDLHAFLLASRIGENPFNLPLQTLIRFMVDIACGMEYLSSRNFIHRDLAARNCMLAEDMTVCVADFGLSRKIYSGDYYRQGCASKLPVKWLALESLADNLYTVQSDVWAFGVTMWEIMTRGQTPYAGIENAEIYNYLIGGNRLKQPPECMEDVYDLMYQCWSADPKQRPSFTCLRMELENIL
In words: TYRO3 Enzyme Assay (LanthaScreen Eu Kinase Binding). The following applies: averaged IC50; TYRO3 5 nM; 60-minute incubation at 22° C.; TR-FRET. The method in brief: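 Competitive tracer-displacement TR-FRET: 5 nM kinase, 20 nM Alexa-Fluor Tracer 236 and 2 nM Eu-anti-GST with threefold-diluted compound in 25 mM HEPES pH 7.4, 10 mM MgCl2, 0.01% Triton X-100, 2% DMSO, 60 min at 22° C. Ratiometric percent of control fitted to a 4-parameter logistic; IC50 at 50 POC.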
(Time-resolved FRET reads energy transfer from a long-lived donor to a nearby acceptor.)

Data set [3] has as its target T3, MDR1 transfected LLC-PK1 cells (Homo sapiens, UniProt P08183).
T3 construct: expressed in transfected cells; host or cells: LLC-PK1
In words: MDR1 LLC-PK1 permeability assay. Type of data set: in vitro ADME. The following applies: efflux ratio = Papp(B-A)/Papp(A-B). The gist of the method: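 MDR1-transfected LLC-PK1 monolayers dosed at 1 μM test article (1% organic) in A→B and B→A directions, in triplicate, for 2 h at 37 °C; lucifer yellow monitored monolayer integrity. Compound measured by LC-MS/MS against labetalol internal standard; Papp averaged per replicate, efflux ratio = Papp(B−A)/Papp(A−B).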

pIC50: −log10 of the molar value.

T3 sequence (P08183 whole entry): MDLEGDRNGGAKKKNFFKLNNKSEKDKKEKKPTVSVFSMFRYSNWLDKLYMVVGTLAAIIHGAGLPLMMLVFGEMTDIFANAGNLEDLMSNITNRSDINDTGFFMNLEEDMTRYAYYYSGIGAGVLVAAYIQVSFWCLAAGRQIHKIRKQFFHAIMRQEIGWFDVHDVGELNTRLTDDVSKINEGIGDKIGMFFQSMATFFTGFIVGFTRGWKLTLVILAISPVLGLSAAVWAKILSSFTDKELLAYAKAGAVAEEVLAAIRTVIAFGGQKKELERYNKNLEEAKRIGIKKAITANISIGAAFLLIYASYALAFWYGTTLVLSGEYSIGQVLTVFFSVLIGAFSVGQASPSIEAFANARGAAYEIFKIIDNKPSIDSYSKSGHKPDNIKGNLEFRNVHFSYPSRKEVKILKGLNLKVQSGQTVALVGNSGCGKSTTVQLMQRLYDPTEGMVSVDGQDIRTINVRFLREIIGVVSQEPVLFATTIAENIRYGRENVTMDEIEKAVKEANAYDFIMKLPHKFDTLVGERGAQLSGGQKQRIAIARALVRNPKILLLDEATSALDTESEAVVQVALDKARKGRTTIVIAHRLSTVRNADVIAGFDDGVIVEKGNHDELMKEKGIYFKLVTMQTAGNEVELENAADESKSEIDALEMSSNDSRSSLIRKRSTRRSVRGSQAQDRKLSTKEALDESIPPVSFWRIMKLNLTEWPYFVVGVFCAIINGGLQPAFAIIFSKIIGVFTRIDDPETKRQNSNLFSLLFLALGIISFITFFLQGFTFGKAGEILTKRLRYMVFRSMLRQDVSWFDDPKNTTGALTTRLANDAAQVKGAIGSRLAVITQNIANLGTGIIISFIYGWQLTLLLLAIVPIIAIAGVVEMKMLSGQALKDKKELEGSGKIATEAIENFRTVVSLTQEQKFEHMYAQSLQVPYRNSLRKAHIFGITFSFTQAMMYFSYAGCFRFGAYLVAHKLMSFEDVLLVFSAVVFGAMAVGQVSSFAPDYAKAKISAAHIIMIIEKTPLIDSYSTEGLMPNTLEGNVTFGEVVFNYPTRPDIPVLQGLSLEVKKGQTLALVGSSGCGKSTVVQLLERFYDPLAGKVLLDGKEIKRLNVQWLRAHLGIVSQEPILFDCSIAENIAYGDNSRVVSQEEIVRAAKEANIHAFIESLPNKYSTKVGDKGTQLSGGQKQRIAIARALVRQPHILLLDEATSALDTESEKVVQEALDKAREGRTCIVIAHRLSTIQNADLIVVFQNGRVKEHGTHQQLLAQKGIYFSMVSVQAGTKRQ
T1 sequence (P08581 with tags, fused parts or gaps DEL963-1009 limits assumed): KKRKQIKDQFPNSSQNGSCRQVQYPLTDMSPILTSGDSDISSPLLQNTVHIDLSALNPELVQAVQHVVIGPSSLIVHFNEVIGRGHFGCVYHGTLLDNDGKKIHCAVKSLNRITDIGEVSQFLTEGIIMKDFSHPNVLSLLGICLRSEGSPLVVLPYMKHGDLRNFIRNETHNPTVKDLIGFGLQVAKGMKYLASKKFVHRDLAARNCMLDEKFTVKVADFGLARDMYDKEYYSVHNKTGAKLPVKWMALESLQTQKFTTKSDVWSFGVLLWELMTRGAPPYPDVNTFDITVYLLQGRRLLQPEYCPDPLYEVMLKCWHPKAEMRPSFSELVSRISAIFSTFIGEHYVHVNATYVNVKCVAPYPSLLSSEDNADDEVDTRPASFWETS

For `COc1cc2nccc(Oc3ccc(NC(=O)c4cn(CCC(C)C)cc(-c5ccc(F)c(F)c5)c4=O)nc3)c2cc1OC` [Example 35, 5-(3,4-difluorophenyl)-N-(5-((6,7-dimethoxyquinolin-4yl)oxy)pyridin-2-yl)-1-isopentyl-4-oxo-1,4-dihydropyridine-3-carboxamide], the pIC50 (in general, the negative decadic logarithm of the IC50, by convention in mol/L) in data set [1] was 7.85; in data set [2], 7.52. The “MDR1 Pe Ratio” value in data set [3] was 3.5.

These data come from patent US20200216416A1, “QUINOLINE COMPOUNDS AS INHIBITORS OF TAM AND MET KINASES” (Array BioPharma Inc., priority 2019, published 2020).
